Measured values published in patent US20070167408A1, “NOVEL ALKYL PHOSPHOLIPID DERIVATIVES WITH REDUCED CYTOTOXICITY AND USES THEREOF” (ZENTARIS GmbH, priority 2005, published 2007).
Converted amounts (≈) assume the structure as drawn.

Columns and labels:
[1] = system: Candida albicans TS3; assay: Anti-fungal broth microdilution (MIC), fungus F; assay type: cell-based; settings: yeast protocol, more than 80% inhibition, 48 h
Procedure: (§1) Anti-fungal activity of selected compounds of the invention was assessed by means of anti-fungal susceptibility tests as follows.
(§2) The antifungal activities of the compounds of the invention against different fungi were measured according to standard broth microdilution methods of the US National Committee for Clinical Laboratory standards (NCCLS) for yeasts (NCCLS document M27-A, 1997) and filamentous fungi (NCCLS document M38-A, 2002).
(§3) Stock solutions of compounds of the invention were freshly prepared on the days of experiments equal to 1.28 mg/10 ml media. Serial dilutions were performed to achieve the following testing concentrations: 64 μg/ml, 32 μg/ml, 16 μg/ml, 8 μg/ml, 4 μg/ml, 2 μg/ml, 1 μg/ml, 0.5 μg/ml, 0.25 μg/ml and 0.125 μg/ml.
(§4) An inoculum of 10^6 CFU/ml of the fungi strain was prepared in the appropriate medium and transferred to test tubes for incubation.
(§5) The method is used to determine the minimum inhibitory concentrations (MIC) of drugs on fungi strains. […] For the filamentous fungi protocol, MIC determination took place after 48 to 72 h of culture at 35° C. and was defined at that concentration which produced more than 50% visible growth inhibition.

[2] = system: Cryptococcus gattii ATCC 32608; assay: Anti-fungal broth microdilution (MIC), fungus J; assay type: cell-based; settings: yeast protocol, more than 80% inhibition, 48 h
Procedure: as §1, §2, §3, §4, §5

[3] = system: Candida parapsilosis ATCC 22019; assay: Anti-fungal broth microdilution (MIC), fungus G; assay type: cell-based; settings: yeast protocol, more than 80% inhibition, 48 h
Procedure: as §1, §2, §3, §4, §5

[4] = system: Trypanosoma cruzi (Tulahuan-LACZ amstigotes in PEM); assay: In vitro drug activity assay, protozoon A; assay type: cell-based; settings: amastigotes in murine peritoneal macrophages, 3 days
Procedure: (§6) In vitro activity of selected compounds of the invention against different protozoa was assessed as follows.
Murine (CD1) peritoneal macrophages were harvested 24 hours after starch induction and dispensed into 96-well plates at a concentration of 4×10^5 mL. After 24 hours, the cells were infected with Trypanosoma cruzi Tulahuan LAC-Z amastigotes (grown and cultured according to Buckner et al., Infection and Immunity 1999, 67(1): 403-409). 24 hours later, the infected cells were exposed to the test compounds (compounds of the invention as well as known prior art compounds) for 3 days and 50 μL of 500 μM CPRG-1% Nonidet P-40 was added to each well. The plates were read after 2 to 5 hours at 570 nm (Buckner et al., Antimicrobial Agents and Chemotherapy 1996, 40(11): 2592-2597). ED50 values were calculated with Msxlfit (IDBS).
(§7) The following protozoa were assessed: • A) Trypanosoma cruzi (Tulahuan-LACZ amstigotes in PEM, Lorente S O et al., Antimicrobial agents and chemotherapy 2004, 48(8): 2937-2950; Buckner et al., Infection and Immunity 1999, 67(1): 403-409; Buckner et al., Antimicrobial Agents and Chemotherapy 1996, 40(11): 2592-2597) • B) Trypanosoma brucei rhodesiense (strain STIB900, Lorente S O et al., Antimicrobial agents and chemotherapy 2004, 48(8): 2937-2950; Habtemariam S, BMC Pharmacology 2003, 3:6) • C) Plasmodium falciparum (strain K1, Korsinczky M et al., Antimicrobial agents and chemotherapy 2000, 44(8): 2100-2108; Thaitong S and Beale G H, Trans. R. Soc. Trop. Med. Hyg. 1981, 75: 271-273; Trager W and Jensen J B, Science 1976, 193: 673-675) • D) Plasmodium faiciparum (strain 3D7, Mu et al., PLoS Biology 2005, 3(10): e335)

[5] = system: Plasmodium falciparum (strain K1); assay: In vitro drug activity assay, protozoon C; assay type: cell-based; settings: strain K1, 3[H]-hypoxanthine method
Procedure: as §6
(§8) Plasmodium falciparum strain K1 and strain 3D7 parasites were cultured according to Trager W and Jensen J B (Science 1976, 193: 673-675). In vitro drug susceptibility assays with the test compounds were carried out according to Korsinczky M et al. (Antimicrobial agents and chemotherapy 2000, 44(8): 2100-2108) and Fivelman Q L et al. (Antimicrobial agents and chemotherapy 2004, 48(11): 4097-4102) using a ^3[H]-hypoxanthine radioisotope method. ED50 values were calculated with Msxlfit (IDBS).
as §7

[6] = system: Cryptococcus neoformans ATCC 90112; assay: Anti-fungal broth microdilution (MIC), fungus H; assay type: cell-based; settings: yeast protocol, more than 80% inhibition, 48 h
Procedure: as §1, §2, §3, §4, §5

[7] = system: Cryptococcus neoformans H99; assay: Anti-fungal broth microdilution (MIC), fungus I; assay type: cell-based; settings: yeast protocol, more than 80% inhibition, 48 h
Procedure: as §1, §2, §3, §4, §5

[8] = system: Candida albicans ATCC 90028; assay: Anti-fungal broth microdilution (MIC), fungus E; assay type: cell-based; settings: yeast protocol, more than 80% inhibition, 48 h
Procedure: as §1, §2, §3, §4, §5

[9] = system: Aspergillus fumigatus ATCC 204305; assay: Anti-fungal broth microdilution (MIC), fungus A; assay type: cell-based; settings: filamentous protocol, more than 50% growth inhibition, 48 to 72 h
Procedure: as §1, §2, §3, §4, §5

[10] = system: Trypanosoma brucei rhodesiense (strain STIB900); assay: In vitro drug activity assay, protozoon B; assay type: cell-based; settings: bloodstream form trypomastigotes, 72 hours, Alamar Blue
Procedure: as §6
Trypanosoma brucei rhodesiense STIB900 bloodstream form trypomastigotes were maintained in HMI-18 medium (Hirumi H, Hirumi K, J Parasitol. 1989, 75(6):985-989) with 15% heat-inactivated fetal calf serum at 37° C., 5% CO2, humidified atmosphere. Trypomastigotes were washed and resuspended in fresh medium at a concentration of 2×10^5 mL. Test compounds were given to the trypomastigotes and plates were incubated for 72 hours at 37° C., 5% CO2, humidified atmosphere. At 72 hours the plates were assessed microscopically before Alamar Blue was added (Raz et al., Acta Trop. 1997, 68: 139-147). Plates were read after 5 to 6 hours at EX/EM 530/585 nm with a filter cutoff at 550 nm. ED50 values were calculated with Msxlfit (IDBS).
as §7

[11] = system: Aspergillus fumigatus 322-384; assay: Anti-fungal broth microdilution (MIC), fungus B; assay type: cell-based; settings: filamentous protocol, more than 50% growth inhibition, 48 to 72 h
Procedure: as §1, §2, §3, §4, §5

[12] = system: Candida albicans ATCC 10231; assay: Anti-fungal broth microdilution (MIC), fungus D; assay type: cell-based; settings: yeast protocol, more than 80% inhibition, 48 h
Procedure: as §1, §2, §3, §4, §5

[13] = system: Aspergillus fumigatus 040-200167; assay: Anti-fungal broth microdilution (MIC), fungus C; assay type: cell-based; settings: filamentous protocol, more than 50% growth inhibition, 48 to 72 h
Procedure: as §1, §2, §3, §4, §5

[14] = system: Plasmodium faiciparum (strain 3D7); assay: In vitro drug activity assay, protozoon D; assay type: cell-based, Plasmodium falciparum; settings: strain 3D7, 3[H]-hypoxanthine method
Procedure: as §6, §8, §7

[15] = system: Bacteroides fragilis DSM 2151 (ATCC 25285); assay: Anti-bacterial bouillon microdilution assay (MIC), bacterium E; assay type: cell-based; settings: anaerob, 24 h
Procedure: (§9) Selected compounds of the invention were tested in a bouillon microdilution assay method according to the DIN 58940 (www.din.de) guidelines for determination of susceptibility of bacterial strains with regard to cell growth inhibition. The assay method quantifies bacterial cell growth which corresponds to the turbidity of the liquid culture medium by photometric measurement carried out at 595 nm.
(§10) The method of MIC determination was performed according to DIN 58940-5. The volumina were adapted according to the microdilution method as described in DIN 58940-7 guideline.
(§11) Dependent on water solubility, compounds of the invention were dissolved either in water or ethanol in a concentration of 10 mg/ml. Subsequently, the stock was further diluted in water to a concentration of 512 μg/ml. The following serial dilutions (factor 2) were performed in water resulting in the following […] testing concentrations: 256 μg/ml, 128 μg/ml, 64 μg/ml, 32 μg/ml, 16 μg/ml, 8 μg/ml, 4 μg/ml, 2 μg/ml, 1 μg/ml, 0.5 μg/ml, 0.25 μg/ml and 0.125 μg/ml. Diluted compounds of the invention were transferred in 100 μl volume to the microtiter plate wells.
(§12) Pre-cultures of bacteria were grown in appropriate liquid media (refer to ATCC webpage, www.atcc.org) and afterwards were inoculated in corresponding liquid medium. 100 μl of the inoculums [adjusted to an amount of app. 1×10^6 microorganisms per ml (range of 10^5-10^8 microorganisms per ml)] were added to each of the testing compound concentrations and cultivated under the appropriate conditions.
(§13) Before and after incubation, bacterial growth was determined by photometric analysis against a positive control containing growing bacteria without compound and a sterile/negative control containing only the medium.

[16] = system: Moraxella catarrhalis DMS 11994 (ATCC 43617); assay: Anti-bacterial bouillon microdilution assay (MIC), bacterium D; assay type: cell-based; settings: 24 h
Procedure: as §9, §10, §11, §12, §13

SMILES | MIC, fungus F [1] | MIC, fungus J [2] | MIC, fungus G [3] | ED50 (μg/mL), protozoon A [4] | ED50 (μg/mL), protozoon C [5] | MIC, fungus H [6] | MIC, fungus I [7] | MIC, fungus E [8] | MIC, fungus A [9] | ED50 (μg/mL), protozoon B [10] | MIC, fungus B [11] | MIC, fungus D [12] | MIC, fungus C [13] | ED50 (μg/mL), protozoon D [14] | MIC, bacterium E [15] | MIC, bacterium D [16]
CCCCCCCCCCCCCCCCOP(=O)([O-])OC1CC[N+](C)(Cc2ccccc2)CC1 (stereo not drawn) [Compound 1, Phosphoric acid 1-benzyl-1-methyl-piperidin-4-yl ester hexadecyl ester] | 1.5 µg/mL (≈ 2.94 µM) | 1 µg/mL (≈ 1.96 µM) | 3 µg/mL (≈ 5.89 µM) | 1.71 µg/mL (≈ 3.35 µM) | 6.93 µg/mL (≈ 13.6 µM) | 1.5 µg/mL (≈ 2.94 µM) | 2 µg/mL (≈ 3.92 µM) | 1 µg/mL (≈ 1.96 µM) | 2 µg/mL (≈ 3.92 µM) | 18.80 µg/mL (≈ 36.9 µM) | 2 µg/mL (≈ 3.92 µM) | 2 µg/mL (≈ 3.92 µM) | 4 µg/mL (≈ 7.85 µM) | 9.97 µg/mL (≈ 19.6 µM) |  | 
CCCCCCCCCCCCCCCCOP(=O)([O-])OCC[N+]12CCC(CC1)CC2 [Compound 3, Phosphoric acid 2-(1-aza-bicyclo[2.2.2]oct-1-yl)-ethyl ester hexadecyl ester] | 2 µg/mL (≈ 4.35 µM) | 0.75 µg/mL (≈ 1.63 µM) | 2 µg/mL (≈ 4.35 µM) | 0.33 µg/mL (≈ 0.718 µM) | 8.03 µg/mL (≈ 17.5 µM) | 1.5 µg/mL (≈ 3.26 µM) | 1 µg/mL (≈ 2.18 µM) | 1 µg/mL (≈ 2.18 µM) | 3 µg/mL (≈ 6.53 µM) | 25.03 µg/mL (≈ 54.5 µM) | 2 µg/mL (≈ 4.35 µM) | 1 µg/mL (≈ 2.18 µM) | 4 µg/mL (≈ 8.7 µM) | 2.25 µg/mL (≈ 4.9 µM) | 128 µg/mL (≈ 278 µM) | 8 µg/mL (≈ 17.4 µM)
